# Laboratory results reported in PubChem BioAssay AID2060902 (Molecular Pharmacology Branch, DTP, NCI, 2025).
# Tested on: 485368-065-R3-J5-PDC spheroids with HUVEC/MSC, viability
# Assay: Anticancer human tumor 485368-065-R3-J5-PDC patient-derived pancreatic carcinoma cell line growth inhibition [RAS]
# Conditions: for IC50: curve of first compound; for viability, T/C: stronger effect = lower value
# Outline: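 Tumour cells grown as complex spheroids with HUVEC endothelial cells and mesenchymal stem cells, treated with RAS pathway inhibitor combinations. Each agent spans half-log steps from near clinical Cmax, or 10 microM where Cmax is unknown.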
# [1] = second compound 0.00316 µM, first compound 0.0316 µM
# [2] = second compound 0.00316 µM, first compound 0.1 µM
# [3] = second compound 0.00316 µM, first compound 0.316 µM
# [4] = second compound 0.00316 µM, first compound 1 µM
# [5] = second compound 0.00316 µM, first compound 3.16 µM
# [6] = second compound 0.00316 µM, first compound 10 µM
# [7] = second compound 0.01 µM, first compound 0.0316 µM
# [8] = second compound 0.01 µM, first compound 0.1 µM
# [9] = second compound 0.01 µM, first compound 0.316 µM
# [10] = second compound 0.01 µM, first compound 1 µM
# [11] = second compound 0.01 µM, first compound 3.16 µM
# [12] = second compound 0.01 µM, first compound 10 µM
# [13] = second compound 0.0316 µM, first compound 0.0316 µM
# [14] = second compound 0.0316 µM, first compound 0.1 µM
# [15] = second compound 0.0316 µM, first compound 0.316 µM
# [16] = second compound 0.0316 µM, first compound 1 µM
# [17] = second compound 0.0316 µM, first compound 3.16 µM
# [18] = second compound 0.0316 µM, first compound 10 µM
# [19] = second compound 0.1 µM, first compound 0.0316 µM
# [20] = second compound 0.1 µM, first compound 0.1 µM
# [21] = second compound 0.1 µM, first compound 0.316 µM
# [22] = second compound 0.1 µM, first compound 1 µM
# [23] = second compound 0.1 µM, first compound 3.16 µM
# [24] = second compound 0.1 µM, first compound 10 µM
# [25] = second compound 0.316 µM, first compound 0.0316 µM
# [26] = second compound 0.316 µM, first compound 0.1 µM
# [27] = second compound 0.316 µM, first compound 0.316 µM
# [28] = second compound 0.316 µM, first compound 1 µM
# [29] = second compound 0.316 µM, first compound 3.16 µM
# [30] = second compound 0.316 µM, first compound 10 µM
# [31] = second compound 1 µM, first compound 0.0316 µM
# [32] = second compound 1 µM, first compound 0.1 µM
# [33] = second compound 1 µM, first compound 0.316 µM
# [34] = second compound 1 µM, first compound 1 µM
# [35] = second compound 1 µM, first compound 3.16 µM
# [36] = second compound 1 µM, first compound 10 µM
# 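Further: spheroids exposed to agents for seven days before readout.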
smiles,measurement,setting,value
CC1(O)CCCC1n1c(=O)c(C(F)F)cc2cnc(NC3CCN(S(C)(=O)=O)CC3)nc21 (stereo unspecified) + C=CC(=O)N1CCN(c2nc(OCC3CCCN3C)nc3c(F)c(-c4nc(N)cc(C)c4C(F)(F)F)c(Cl)cc23)C(C)C1,IC50,second compound 0.00316 µM,402 nM
same,IC50,second compound 0.01 µM,314 nM
same,IC50,second compound 0.0316 µM,298 nM
same,IC50,second compound 0.1 µM,258 nM
same,IC50,second compound 0.316 µM,429 nM
same,IC50,second compound 1 µM,750 nM
same,"viability, T/C",[1],109%
same,"viability, T/C",[2],68.7%
same,"viability, T/C",[3],46.7%
same,"viability, T/C",[4],48.2%
same,"viability, T/C",[5],40.6%
same,"viability, T/C",[6],11.1%
same,"viability, T/C",[7],107%
same,"viability, T/C",[8],69.5%
same,"viability, T/C",[9],45.3%
same,"viability, T/C",[10],38.8%
same,"viability, T/C",[11],42.1%
same,"viability, T/C",[12],12.6%
same,"viability, T/C",[13],99.3%
same,"viability, T/C",[14],62.2%
same,"viability, T/C",[15],44.4%
same,"viability, T/C",[16],42.2%
same,"viability, T/C",[17],45.9%
same,"viability, T/C",[18],11.3%
same,"viability, T/C",[19],93.9%
same,"viability, T/C",[20],62.8%
same,"viability, T/C",[21],38.3%
same,"viability, T/C",[22],41.9%
same,"viability, T/C",[23],47.6%
same,"viability, T/C",[24],10.6%
same,"viability, T/C",[25],99.7%
same,"viability, T/C",[26],64.8%
same,"viability, T/C",[27],51.8%
same,"viability, T/C",[28],42%
same,"viability, T/C",[29],43.4%
same,"viability, T/C",[30],12.5%
same,"viability, T/C",[31],109%
same,"viability, T/C",[32],60%
same,"viability, T/C",[33],41.3%
same,"viability, T/C",[34],55.7%
same,"viability, T/C",[35],44.9%
same,"viability, T/C",[36],11.1%
CCC(CC)c1cc(NC2CCC(N)C2)n2nccc2n1 (stereo unspecified) + C=CC(=O)N1CCN(c2nc(OCC3CCCN3C)nc3c(F)c(-c4nc(N)cc(C)c4C(F)(F)F)c(Cl)cc23)C(C)C1,IC50,second compound 0.00316 µM,1950 nM
same,IC50,second compound 0.01 µM,1990 nM
same,IC50,second compound 0.0316 µM,1950 nM
same,IC50,second compound 0.1 µM,1970 nM
same,IC50,second compound 0.316 µM,1940 nM
same,IC50,second compound 1 µM,1980 nM
same,"viability, T/C",[1],107%
same,"viability, T/C",[2],93%
same,"viability, T/C",[3],114%
same,"viability, T/C",[4],133%
same,"viability, T/C",[5],3.52%
same,"viability, T/C",[6],6.56%
same,"viability, T/C",[7],118%
same,"viability, T/C",[8],108%
same,"viability, T/C",[9],109%
same,"viability, T/C",[10],136%
same,"viability, T/C",[11],3.73%
same,"viability, T/C",[12],5.65%
same,"viability, T/C",[13],101%
same,"viability, T/C",[14],109%
same,"viability, T/C",[15],112%
same,"viability, T/C",[16],134%
same,"viability, T/C",[17],3.48%
same,"viability, T/C",[18],4.43%
same,"viability, T/C",[19],93.7%
same,"viability, T/C",[20],104%
same,"viability, T/C",[21],117%
same,"viability, T/C",[22],143%
same,"viability, T/C",[23],3.81%
same,"viability, T/C",[24],6.8%
same,"viability, T/C",[25],94.8%
same,"viability, T/C",[26],108%
same,"viability, T/C",[27],106%
same,"viability, T/C",[28],132%
same,"viability, T/C",[29],3.87%
same,"viability, T/C",[30],7.93%
same,"viability, T/C",[31],97.5%
same,"viability, T/C",[32],92.3%
same,"viability, T/C",[33],120%
same,"viability, T/C",[34],133%
same,"viability, T/C",[35],5.49%
same,"viability, T/C",[36],10.8%
CCN1CCN(Cc2ccc(Nc3ncc(F)c(-c4cc(F)c5nc(C)n(C(C)C)c5c4)n3)nc2)CC1 + C=CC(=O)N1CCN(c2nc(OCC3CCCN3C)nc3c(F)c(-c4nc(N)cc(C)c4C(F)(F)F)c(Cl)cc23)C(C)C1,IC50,second compound 0.00316 µM,316 nM
same,IC50,second compound 0.01 µM,300 nM
same,IC50,second compound 0.0316 µM,454 nM
same,IC50,second compound 0.1 µM,644 nM
same,IC50,second compound 0.316 µM,604 nM
same,IC50,second compound 1 µM,627 nM
same,"viability, T/C","second compound 0.00316 µM, first compound 0.00316 µM",107%
same,"viability, T/C","second compound 0.00316 µM, first compound 0.01 µM",95.8%
same,"viability, T/C",[1],82.5%
same,"viability, T/C",[2],61.7%
same,"viability, T/C",[3],48.1%
same,"viability, T/C",[4],47%
same,"viability, T/C","second compound 0.01 µM, first compound 0.00316 µM",107%
same,"viability, T/C","second compound 0.01 µM, first compound 0.01 µM",96.7%
same,"viability, T/C",[7],81.3%
same,"viability, T/C",[8],64.3%
same,"viability, T/C",[9],49.6%
same,"viability, T/C",[10],38%
same,"viability, T/C","second compound 0.0316 µM, first compound 0.00316 µM",106%
same,"viability, T/C","second compound 0.0316 µM, first compound 0.01 µM",98.8%
same,"viability, T/C",[13],82.1%
same,"viability, T/C",[14],73.4%
same,"viability, T/C",[15],52.9%
same,"viability, T/C",[16],40.5%
same,"viability, T/C","second compound 0.1 µM, first compound 0.00316 µM",94.8%
same,"viability, T/C","second compound 0.1 µM, first compound 0.01 µM",88.1%
same,"viability, T/C",[19],90.1%
same,"viability, T/C",[20],76.8%
same,"viability, T/C",[21],60.2%
same,"viability, T/C",[22],43.8%
same,"viability, T/C","second compound 0.316 µM, first compound 0.00316 µM",97.5%
same,"viability, T/C","second compound 0.316 µM, first compound 0.01 µM",96.2%
same,"viability, T/C",[25],81%
same,"viability, T/C",[26],65.5%
same,"viability, T/C",[27],62.4%
same,"viability, T/C",[28],42.7%
same,"viability, T/C","second compound 1 µM, first compound 0.00316 µM",106%
same,"viability, T/C","second compound 1 µM, first compound 0.01 µM",88.3%
same,"viability, T/C",[31],80.3%
same,"viability, T/C",[32],68%
same,"viability, T/C",[33],57.3%
same,"viability, T/C",[34],44.8%
